{"source": "patent US20030044875A1", "about": "“Substrate for PP2C” (Schering AG, priority 2001, published 2003)", "key": {"PP2C": {"tested_on": "PP2C", "settings": "cited from earlier work"}, "PP2Cβ": {"molecular_target": "T1, PP2Cβ (Bos taurus, UniProt O62830)", "T1 construct": "inferred from the Ni-NTA purification; made in house; host or cells: E. coli", "T1 sequence (O62830 1-484)": "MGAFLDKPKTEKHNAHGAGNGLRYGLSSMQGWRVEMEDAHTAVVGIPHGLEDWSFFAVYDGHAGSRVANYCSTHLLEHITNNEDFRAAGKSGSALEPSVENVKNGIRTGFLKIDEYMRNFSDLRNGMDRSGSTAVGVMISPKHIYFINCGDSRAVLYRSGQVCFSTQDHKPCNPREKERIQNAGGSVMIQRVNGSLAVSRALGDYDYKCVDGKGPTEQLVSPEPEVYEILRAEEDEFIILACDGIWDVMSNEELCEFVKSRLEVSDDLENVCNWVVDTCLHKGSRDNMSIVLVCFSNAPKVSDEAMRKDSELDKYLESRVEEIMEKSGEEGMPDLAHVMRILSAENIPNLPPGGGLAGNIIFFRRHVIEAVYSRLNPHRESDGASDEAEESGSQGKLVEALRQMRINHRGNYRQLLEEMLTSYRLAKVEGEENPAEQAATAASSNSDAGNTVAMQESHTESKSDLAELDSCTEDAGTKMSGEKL", "test": "Dephosphorylation of phospho-BAD by PP2Cβ, Mg2+-dependence", "format": "biochemical, bovine", "procedure": "Dephosphorylation of phospho-BAD by PP2C is assayed in vitro using recombinant BAD (Lizcano, J. M., Morrice, N. and Cohen, P. (2000) Regulation of Bad by cAMP-dependent protein kinase is mediated via phosphorylation of a novel site, Ser^155. Biochem. J. Vol: 349, 547-557) kindly provided by Sir Philip Cohen, Dundee, UK. cDNA encoding PP2Cβ from bovine brain was expressed in E. Coli and purified using Ni-NTA-Sepharose. (J. Neurosci. Res. 51, 328-338 (1998) Protein phosphatase type-2C isozymes present in vertebrate retinae: purification, characterization, and localization in photoreceptors.)\nIncubations were carried out for 30 min at 37° C. The reaction mixture (12 μl) contained 12 μg BAD (GST-fusion protein) (Lizcano et al. (2000) Biochem. J. 349, 547-557), 0.55 μg PKA (Sigma), 1 μM ATP, 15 μCi [γ-^32P]ATP, 5 mM MgCl2 and 25 mM Tris/HCl pH 7.5. After incubation at 37° C. for 30 min, hot and cold ATP were removed by centrisep centrifugation columns. […]\nDephosphorylation of [^32P]BAD depends on the time of incubating PP2Cβ together with the substrate phospho-BAD which is cleaved to give phosphate and BAD. The concentration of [^32P]BAD is measured in this assay, therefore intensive spots on the X-ray sensitive film represent high concentrations of [^32P]BAD, in other words low activity of the enzyme PP2Cβ."}}, "note": "“Also recorded” adds a separate entry of the source.", "data": [{"smiles": "C=C1[C@@H](O)[C@@H]2O[C@]3(CC[C@H](/C=C/[C@@H](C)[C@@H]4CC(C)=C[C@@]5(O[C@H](C[C@@](C)(O)C(=O)O)CC[C@H]5O)O4)O3)CC[C@H]2O[C@@H]1[C@@H](O)C[C@H](C)[C@H]1O[C@@]2(CCCCO2)CC[C@H]1C", "note": "[okadaic acid]", "values": [{"measurement": "Sensitivity of PP2C activity to inhibitor", "setting": "PP2C", "value": "not sensitive"}]}, {"smiles": "[Mg+2]", "note": "[Mg^2+]", "values": [{"measurement": "Effect of Mg2+ ions on enzymatic activity of PP2C (dephosphorylation of BAD)", "setting": "PP2Cβ", "value": "requires the presence of Mg^2+-ions; also recorded: increases the enzymatic activity"}]}]}
